From patent US12410152B2, “Oxazole and thioazole-type cullin ring ubiquitin ligase compounds and uses thereof” (Proxygen GmbH, priority 2019, dated 2025)

How the values were obtained:
UBE2Mresc KBM7 cells = assay: Cell viability assay, KBM7 UBE2M rescue (UBE2M cDNA re-introduced); type: cell-based, human; conditions: Table 1, data of FIG. 4; 3-day treatment; read-out: LC50 UBE2Mresc
Method: KBM7 cells with the specified genetic backgrounds were grown in IMDM supplemented with 10% FBS and 1% penicillin/streptomycin (pen/strep). AsPC1, HCT116, NCI-H446 and 293T cells were grown in DMEM 10% FBS and 1% pen/strep. MV4; 11, Jurkat and Be (2) C cells were grown in RPMI 10% FBS 1% pen/strep. KBM7, AsPC1 and HCT116 cells expressing Cas9 were generated using the plasmid Lenti_Cas9_Blasti (Addgene #52962). The lentiviral plasmid lentiGuide-Puro (Addgene #52963) was used to express sgRNAs against the genes UBE2M (in KBM7-Cas9, AsPC1-Cas9 and HCT116-Cas9 cells), UBE2G1 (in KBM7-Cas9 cells) and […] (in KBM7-Cas9 cells). The lentiviral plasmid lentiGuide-Puro-IRES-mCherry (modified from Addgene #52963) was used to express sgRNAs against CUL4A (in KBM7-Cas9 cells). The lentiviral plasmid pLenti-PGK-Hygro-DEST-UBE2M was generated by Gateway cloning (empty destination vector Addgene #19066), and used to generate UBE2M^resc KBM7 cells.
Indeed, >20 compounds were identified that fulfilled this criteria. […] The initial screening assay was conducted at two concentrations (10 μM and 500 nM). The dose ranging differential effect of these four hits was assessed/validated, comparing their activity in KBM7WT vs UBE2MMUT cells. […] A genetic rescue experiment, where UBE2M cDNA was re-introduced into the UBE2Mmut clone (UBE2Mresc), did (at least partically) reconstitute the initial sensitivity to the assessed compounds (FIG. 4, Table 1).
KBM7^WT, mutant KBM7 clones (UBE2M^mut, UBE2M^resc, UBE2G1^mut CUL4A^mut, CUL4B^mut), and 3-day doxycycline pretreated KBM7^iCas9_sgDDB1 cells were seeded at a cell density of 50,000 cells/mL in 96-well plates with DMSO or drug, in triplicates. Drugs used: IC020772.1/IC020772.1X, IC021313.2/IC021313.2X, T6938051/T6938051X or THZ531. Cells were treated for 3 days, after which cell viability was assessed according to manufacturer's protocol (CellTiter Glo, Promega G7570). Survival curves and EC50 values were calculated by best-fit analysis of the log 10 drug concentration to fold change of drug-treated cells over DMSO-treated cells. […]

KBM7-Cas9 cells = assay: CRISPR/Cas9 resistance screens (genome-wide Brunello and CRL-focused sgRNA libraries); type: cell-based, human; conditions: two weeks continuous drug treatment, start 4xEC50
Method: 293T cells seeded on 15 cm culture plates 16h before were transfected with 5 μg Brunello pooled library (Addgene #73178; 2-vector system), 2.5 μg pMD2.G (Addgene #12259), and 3.75 μg psPAX2 (Addgene #12260) using PolyFect (Qiagen) according to the manufacturer's protocol. Viral supernatant was harvested 72h after transfection and concentrated using Lenti—X-concentrator (Takara), according to the manufacturer's protocol. Concentrated viral supernatant was stored in aliquots at −80° C. and titrated to achieve a MOI of 0.2-0.3.
250 million KBM7-Cas9 cells were transduced at MOI 0.23, yielding a calculated library representation of 668 cells/sgRNA (library representation=50 million cells). For transduction, 20 μL of concentrated viral supernatant was added to 5 million cells in 1.5 mL IMDM and 8 μg/mL polybrene in 6-well plates. Plates were centrifuged at 2000 rpm for 1 h at 30° C. in a benchtop centrifuge, 0.5 mL IMDM were added and then incubated at 37° C. overnight. The next day, transduced cells were pooled and diluted. Pools were selected with 1 μg/mL puromycin for 5 days. Three independent resistance screens were performed with the library using drugs at starting concentrations of 4×EC50. Selective drug treatment was performed on 50 million cells/drug at a seeding density of 500,000 cells/mL. Every 5 days, cells were pooled, counted and re-seeded to 50 million cells in 100 mL, applying fresh drug. […]
De-multiplexed raw reads were processed to count sgRNA spacer abundance using a custom script. The first 20 bp of the trimmed reads were collected and aligned against the Brunello spacer index using Bowtie2. Spacers were counted using cut-f 3|sort|uniq -c on the aligned SAM files. […] Log 2 fold changes of drug treatment vs DMSO were calculated from normalized counts, omitting spacers with no reads in the DMSO condition. The enrichment rank of each spacer sequence was expressed as a fraction of the total number of spacers, so that the most enriched spacer is assigned a perturbation strength of 1, in accordance with the STARS algorithm. […]

## O=C(CSc1nnc2c(n1)[nH]c1ccccc12)Nc1ccc(Cl)cn1 [IC020772.1]
UBE2Mresc KBM7 cells
  CC50: 750 nM
KBM7-Cas9 cells
  gene enrichment in drug-tolerant populations (genome-wide CRISPR screen): striking enrichment in only four genes

## Cc1ccc(C(=O)N2CSCC2C(=O)N=c2[nH]cc(C)s2)o1 (stereo not drawn) [Compound T6938051]
UBE2Mresc KBM7 cells
  CC50: 1150 nM
KBM7-Cas9 cells
  gene enrichment in drug-tolerant populations (genome-wide CRISPR screen): striking enrichment in only four genes

## O=C(CSc1nc2ccccc2[nH]1)Nc1ccc(Cl)cn1 [IC021313.2]
UBE2Mresc KBM7 cells
  CC50: 1940 nM
KBM7-Cas9 cells
  gene enrichment in drug-tolerant populations (genome-wide CRISPR screen): striking enrichment in only four genes
